Measurements reported in ChEMBL document CHEMBL5608163, “Structure modification of anoplin for fighting resistant bacteria” (Eur J Med Chem, 2024).
Converted amounts (≈) assume the structure as drawn. Peptide text beside a SMILES is read from it.

How the values were obtained:
[1] = Hemolytic activity in human RBC assessed as hemolysis; format: toxicity, cell-based, Erythrocyte; details: red blood cells
Pseudomonas aeruginosa [2] = assay: Antibacterial activity against Pseudomonas aeruginosa ATCC 15442 assessed as reduction in bacterial cell growth incubated for 18 hrs by two fold serial microdilution method; format: functional
Enterococcus faecium [3] = assay: Antibacterial activity against Enterococcus faecium; format: functional
Staphylococcus aureus [4] = assay: Antibacterial activity against Methicillin-resistant Staphylococcus aureus 936 assessed as bacterial growth inhibition measured for 18 hrs by CLSI-protocol based Mueller-Hinton Broth micro-dilution assay; format: functional
Staphylococcus aureus [5] = assay: Antibacterial activity against Staphylococcus aureus ATCC 25923 assessed as bacterial growth inhibition measured for 18 hrs by CLSI-protocol based Mueller-Hinton Broth micro-dilution assay; format: functional
Bacillus subtilis [6] = assay: Antibacterial activity against Bacillus subtilis ATCC 23857 assessed as reduction in bacterial growth measured after 18 to 24 hrs by CLSI protocol-based Mueller-Hinton broth dilution method; format: functional; details: time 18-24 hrs
Staphylococcus aureus [7] = assay: Antibacterial activity against Staphylococcus aureus ATCC 25923 assessed as reduction in bacterial growth measured after 18 to 24 hrs by CLSI protocol-based Mueller-Hinton broth dilution method; format: functional; details: time 18-24 hrs
Acinetobacter baumannii [8] = assay: Antibacterial activity against multi-drug resistant Acinetobacter baumannii clinical isolate 9840 assessed as reduction in bacterial growth measured after 18 to 24 hrs by CLSI protocol-based Mueller-Hinton broth dilution method; format: functional; details: time 18-24 hrs
Klebsiella pneumoniae [9] = assay: Antibacterial activity against Klebsiella pneumoniae ATCC 700603 assessed as reduction in bacterial growth measured after 18 to 24 hrs by CLSI protocol-based Mueller-Hinton broth dilution method; format: functional; details: time 18-24 hrs
Pseudomonas aeruginosa [10] = assay: Antibacterial activity against multi-drug resistant Pseudomonas aeruginosa clinical isolate 119 assessed as reduction in bacterial growth measured after 18 to 24 hrs by CLSI protocol-based Mueller-Hinton broth dilution method; format: functional; details: time 18-24 hrs
Escherichia coli [11] = assay: Antibacterial activity against multi-drug resistant Escherichia coli clinical isolate 850 assessed as reduction in bacterial growth measured after 18 to 24 hrs by CLSI protocol-based Mueller-Hinton broth dilution method; format: functional; details: time 18-24 hrs
Staphylococcus aureus [12] = assay: Antibacterial activity against Staphylococcus aureus ATCC 25923 assessed as reduction in bacterial growth incubated for 24 hrs by serial dilution method; format: functional
Pseudomonas aeruginosa [13] = assay: Antibacterial activity against Pseudomonas aeruginosa ATCC 27853 assessed as reduction in bacterial growth by broth microdilution method; format: functional
Escherichia coli [14] = assay: Antibacterial activity against Escherichia coli ATCC 25922 assessed as bacterial growth inhibition measured after 48 hrs by resazurin assay; format: functional
Enterococcus faecium [15] = assay: Antibacterial activity against Enterococcus faecium ATCC 700221 assessed as reduction in bacterial cell growth by CLSI broth microdilution method; format: functional
Pseudomonas aeruginosa [16] = assay: Antibacterial activity against Pseudomonas aeruginosa ATCC 15442 assessed as growth inhibition; format: functional
Enterococcus faecalis = assay: Antibacterial activity against Enterococcus faecalis assessed as reduction in microbial growth; format: functional
[17] = Hemolytic activity in human RBC; format: toxicity, cell-based, Erythrocyte; details: red blood cells
Acinetobacter baumannii [18] = assay: Antibacterial activity against Acinetobacter baumannii assessed as bacterial growth inhibition; format: functional
[19] = system: Staphylococcus epidermidis; assay: Antibacterial activity against Staphylococcus epidermidis assessed as reduction in microbial growth; format: functional
Bacillus subtilis [20] = assay: Antibacterial activity against Bacillus subtilis assessed as reduction in microbial growth; format: functional
Staphylococcus aureus [21] = assay: Antibacterial activity against Staphylococcus aureus ATCC 25923 assessed as reduction in bacterial growth incubated for 18 to 24 hrs by broth microdilution method; format: functional; details: time 18-24 hrs
Escherichia coli [22] = assay: Antibacterial activity against Escherichia coli ATCC 25922 assessed as reduction in bacterial growth by broth microdilution method; format: functional
Klebsiella pneumoniae [23] = assay: Antibacterial activity against Klebsiella pneumoniae; format: functional

Row | Compound | HC50 [1] | MIC (Staphylococcus aureus [4]) | MIC (Staphylococcus aureus [5]) | MIC (Bacillus subtilis [6]) | MIC (Staphylococcus aureus [7]) | MIC (Acinetobacter baumannii [8]) | MIC (Klebsiella pneumoniae [9]) | MIC (Pseudomonas aeruginosa [10]) | MIC (Escherichia coli [11]) | further results
1 | CC[C@H](C)[C@H](NC(=O)[C@H](CCCCN)NC(=O)[C@H](CCCCN)NC(=O)[C@H](CC(C)C)NC(=O)[C@H](CC(C)C)NC(=O)CN)C(=O)N[C@@H](CCCCN)C(=O)N[C@H](C(=O)N[C@@H](CC(C)C)C(=O)N[C@@H](CC(C)C)C(N)=O)[C@@H](C)O | 269 µM | – | – | – | – | – | – | – | – | MIC (Pseudomonas aeruginosa [2]): 56.8 µM (≈ 63.9 µg/mL); MIC (Enterococcus faecium [3]): 171 µM (≈ 192 µg/mL)
2 | CC[C@H](C)[C@H](NC(=O)[C@H](CCCNC(=N)N)NC(=O)[C@@H](CCCCN)NC(=O)[C@H](CC(C)C)NC(=O)[C@H](CC(C)C)NC(=O)CNC(=O)[C@H](CCCCn1cc(CC(NC(=O)[C@H](CC(C)C)NC(=O)[C@H](CC(C)C)NC(=O)[C@@H](NC(=O)[C@@H](CCCCN)NC(=O)[C@@H](NC(=O)[C@H](CCCNC(=N)N)NC(=O)[C@@H](CCCCN)NC(=O)[C@H](CC(C)C)NC(=O)[C@H](CC(C)C)NC(=O)CNC(C)=O)[C@@H](C)CC)[C@@H](C)O)C(N)=O)nn1)NC(C)=O)C(=O)N[C@H](CCCCN)C(=O)N[C@H](C(=O)N[C@@H](CC(C)C)C(=O)N[C@@H](CC(C)C)C(N)=O)[C@@H](C)O (stereo partly drawn) | – | 64 µM (≈ 169 µg/mL) | 64 µM (≈ 169 µg/mL) | 2 µM (≈ 5.28 µg/mL) | 128 µM (≈ 338 µg/mL) | 4 µM (≈ 10.6 µg/mL) | 32 µM (≈ 84.5 µg/mL) | 16 µM (≈ 42.2 µg/mL) | 32 µM (≈ 84.5 µg/mL) | –
3 | CC[C@H](C)[C@H](NC(=O)[C@H](CCCNC(=N)N)NC(=O)[C@@H](CCCCN)NC(=O)[C@H](CC(C)C)NC(=O)[C@H](CC(C)C)NC(=O)CNC(C)=O)C(=O)N[C@H](CCCCN)C(=O)N[C@H](C(=O)N[C@@H](CC(C)C)C(=O)N[C@@H](CC(C)C)C(=O)NC(Cc1cn(CCCC[C@H](NC(=O)[C@H](CC(C)C)NC(=O)[C@H](CC(C)C)NC(=O)[C@@H](NC(=O)[C@@H](CCCCN)NC(=O)[C@@H](NC(=O)[C@H](CCCNC(=N)N)NC(=O)[C@@H](CCCCN)NC(=O)[C@H](CC(C)C)NC(=O)[C@H](CC(C)C)NC(=O)CNC(C)=O)[C@@H](C)CC)[C@@H](C)O)C(N)=O)nn1)C(N)=O)[C@@H](C)O (stereo partly drawn) | – | 128 µM (≈ 338 µg/mL) | 128 µM (≈ 338 µg/mL) | 4 µM (≈ 10.6 µg/mL) | 128 µM (≈ 338 µg/mL) | 4 µM (≈ 10.6 µg/mL) | 64 µM (≈ 169 µg/mL) | 16 µM (≈ 42.2 µg/mL) | 16 µM (≈ 42.2 µg/mL) | –
4 | CC[C@H](C)[C@H](NC(=O)[C@H](CCCNC(=N)N)NC(=O)[C@H](CCCCN)NC(=O)[C@H](CC(C)C)NC(=O)[C@H](CC(C)C)NC(=O)CN)C(=O)N[C@@H](CCCCN)C(=O)N[C@@H](CCCCN)C(=O)N[C@@H](CC(C)C)C(=O)N[C@@H](CC(C)C)C(N)=O (H-GLLKRIKKLL-NH2) | > 312 µM | – | – | – | – | – | – | – | – | MIC (Staphylococcus aureus [12]): 4.2 µM (≈ 4.96 µg/mL); MIC (Pseudomonas aeruginosa [13]): 28.4 µM (≈ 33.5 µg/mL); MIC (Escherichia coli [14]): 8.5 µM (≈ 10 µg/mL); MIC (Enterococcus faecium [15]): 66.3 µM (≈ 78.3 µg/mL)
5 | CC[C@H](C)[C@H](NC(=O)[C@H](CCCNC(=N)N)NC(=O)[C@H](CCCCN)NC(=O)[C@H](CC(C)C)NC(=O)[C@H](CC(C)C)NC(=O)CN)C(=O)N[C@@H](CCCCN)C(=O)N[C@H](C(=O)N[C@@H](CC(C)C)C(=O)N[C@@H](C)C(N)=O)[C@@H](C)O (H-GLLKRIKTLA-NH2) | – | – | – | – | – | – | – | – | – | MIC (Pseudomonas aeruginosa [16]): 64 µM (≈ 71.1 µg/mL); MIC (Enterococcus faecalis): ≥ 512 µM; HC50 [17]: ≥ 512 µM; MIC (Acinetobacter baumannii [18]): ≥ 512 µM; MIC [19]: 64 µM; MIC (Bacillus subtilis [20]): 32 µM; MIC (Staphylococcus aureus [21]): 43.2 µM (≈ 48 µg/mL); MIC (Escherichia coli [22]): 43.2 µM (≈ 48 µg/mL); MIC (Klebsiella pneumoniae [23]): 256 µM (≈ 285 µg/mL)
